The record followed here is patent US20080112899A1, “Carboxamides and Their Use” (priority 2004, published 2008).

The subject of the experiment is trained panel of 4 to 8 people. As to the kind of experiment: Cooling intensity by isointensity method, trained panel tasting aqueous solutions versus WS 23. Format: in vivo, human. The note with it: aqueous solutions tasted, compared to aqueous solution of reference WS 23 at 2 ppm. The procedure: The cooling intensity of the compounds was determined by a trained panel of 4 to 8 people according to the isointensity method as described below.
Aqueous solutions of various concentrations of a chemical compound are prepared and tasted. The cooling intensity of each solution was compared to that of an aqueous solution of the reference compound at 2 ppm, namely N,2,3-trimethyl-2-isopropylbutanamde (WS 23).
Turning to `COc1ccc(NC(=O)C(C(C)C)C(C)C)cc1` [Ex. 2E, N-(4-Methoxyphenyl)2-isopropylisovaleramide], the rel. cooling intensity is given as 1.1.

Compound `CC(C)C(C(=O)Nc1ccc(C#N)cc1)C(C)C` [Ex. 1, N-(4-cyanophenyl) 2-isopropylisovaleramide] showed a rel. cooling intensity of 1.3.

In turn, `COc1ccc(NC(=O)C(C)(C(C)C)C(C)C)c(OC)c1` [Ex. 2G] registered a rel. cooling intensity of 0.9.

`CC(C)C(C)(C(=O)Nc1ccc(C#N)cc1)C(C)C` [Ex. 2A, N-(4-Cyanophenyl)2-methyl-2-isopropylisovaleramide] displayed a rel. cooling intensity of 1.5.

`CC(C)C(C(=O)Nc1ccccc1C#N)C(C)C` [Ex. 2F, N-(2-Cyanophenyl)2-isopropylisovaleramide] showed a rel. cooling intensity of 1.7.

Take `COc1ccc(NC(=O)C(C)(C(C)C)C(C)C)cc1` [Ex. 2B, N-(4-Methoxyphenyl)2-methyl-2-isopropylisovaleramide]: the rel. cooling intensity is listed as 1.1.

The compound `CC(C)C(C)(C(=O)Nc1ccc(CC#N)cc1)C(C)C` [Ex. 2C, N-(4-Cyanomethyl-phenyl)-2-methyl-2-isopropyl-isovaleramide] registered a rel. cooling intensity of 0.2.

`CC(C)C(C)(C(=O)Nc1ccc2c(c1)OCO2)C(C)C` [Ex. 2H, N-Benzo[1,3]dioxol-5-yl 2-methyl-2-isopropylisovaleramide] yielded a rel. cooling intensity of 0.9.

In the case of `COc1cc(CNC(=O)C(C)(C(C)C)C(C)C)ccc1O` [Ex. 2I, N-Vanillyl 2-methyl-2-isopropylisovaleramide], the rel. cooling intensity is 0.8.
